Laboratory results published in patent US20180311342A1, “IMMUNOSTIMULATING AGENT” (AJINOMOTO CO., INC., priority 2017, published 2018).
Counter-ions that a name gives are not always drawn.

Columns and labels:
Type in all cases: in vivo, BALB/c mice
[1] = system: anti-OVA-specific IgG1 and IgG2a subclass antibody production; test: Evaluation test of adjuvant activity (overall conclusion from anti-OVA IgG1 and IgG2a production); conditions: compound 0.256 μmol in 5% αCD-added saline with OVA 5 μg, dorsal-subcutaneous
Procedure, shortened: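 Female BALB/c mice (8 weeks, N=6) immunized dorsal-subcutaneously with OVA 5 μg alone or plus 0.256 μmol compound in 5% α-cyclodextrin saline (Addavax™ as positive control), boosted at 2 weeks. Serum taken 2 weeks after boost; anti-OVA IgG1 and IgG2a quantified by OVA-coated ELISA against standard curves (OD 450 nm).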

[2] = system: anti-OVA-specific IgG1 subclass antibody; test: Adjuvant activity test: anti-OVA-specific IgG1 subclass antibody in serum of OVA-immunized mice (ELISA); conditions: after primary immunization, serum 2 weeks later; OVA 5 μg + compound 0.256 μmol in 5% αCD-added saline (Addavax mixed with saline at 1:1), dorsal-subcutaneous; compared to OVA single administration group
[3] = system: anti-OVA-specific IgG2a subclass antibody; test: Adjuvant activity test: anti-OVA-specific IgG2a subclass antibody in serum of OVA-immunized mice (ELISA); conditions: after primary immunization, serum 2 weeks later; OVA 5 μg + compound 0.256 μmol in 5% αCD-added saline (Addavax mixed with saline at 1:1), dorsal-subcutaneous; compared to OVA single administration group
[4] = conclusion from IgG1/IgG2a after primary immunization
[5] = conclusion from IgG1/IgG2a after secondary immunization

| SMILES | adjuvant activity [1, 4] | adjuvant activity [1, 5] | anti-OVA-specific IgG1 subclass antibody production [2] | anti-OVA-specific IgG2a subclass antibody production [3] |
| --- | --- | --- | --- | --- |
| CCCCCCCCCCCCCCCCNC(=O)N[C@@H](CC(C)C)C(=O)NCCCCCCCC [SZ201, (2S)-2-(hexadecylcarbamoylamino)-4-methyl-N-octyl-pentanamide] | have an adjuvant activity | have an adjuvant activity | tended to increase | tended to increase |
| CCCCCCCCCCCCCCCCOC(=O)N[C@@H](CC(C)C)C(=O)NCCCCCCCC [SZ203, hexadecyl N-[(1S)-3-methyl-1-(octylcarbamoyl)butyl]carbamate] | have an adjuvant activity | have an adjuvant activity | tended to increase | Significant enhancement |
| CCCCCCCCCCCCCCCCCC(=O)NCC(C)(C)C(=O)NCCCCCCCCCCCC [SZ204, N-[3-(dodecylamino)-2,2-dimethyl-3-oxo-propyl]octadecanamide] | have an adjuvant activity | have an adjuvant activity | tended to increase | tended to increase |
| CCCCCCCCCCCCCCCCCC(=O)N[C@@H](CCCCNC(=N)N)C(=O)NCCCCCCCCCCCC.Cl [SZ205, N-[(1S)-1-(dodecylcarbamoyl)-5-guanidino-pentyl]octadecanamide hydrochloride] | have an adjuvant activity | have an adjuvant activity | significant enhancement | significant enhancement |
| CCCCCCCCCCCCCCCCCC(=O)N[C@@H](CCCCNC(=N)N)C(=O)NCCCCCC.Cl [SZ206, N-[(1S)-1-(hexylcarbamoyl)-5-guanidino-pentyl]octadecanamide hydrochloride] | have an adjuvant activity | have an adjuvant activity | significant enhancement | significant enhancement |
| CCCCCCCCCCCCNC(=O)[C@H](CCCNC(=N)N)N(CCCCCCC)CCCCCCC [SZ207, (2S)-2-(diheptylamino)-N-dodecyl-5-guanidino-pentanamide dihydrochloride] | have an adjuvant activity | have an adjuvant activity | tended to increase | tended to increase |
| CCCCCCCCCCCCCCCCCCCCCC(=O)NCCc1ccncc1.Cl [SZ209, N-[2-(4-pyridyl)ethyl]docosanamide hydrochloride] | have an adjuvant activity | have an adjuvant activity | tended to increase | tended to increase |
| CCCCCCCCCCCCCCCCNC(=O)N[C@@H](CCCNC(=N)N)C(=O)NCCCCCCCC.Cl [SZ210, (2S)-5-guanidino-2-(hexadecylcarbamoylamino)-N-octyl-pentanamide hydrochloride] | have an adjuvant activity | have an adjuvant activity | significant enhancement | significant enhancement |
| CCCCCCCCCCCCCCCCCCNC(=O)N[C@@H](CCCNC(=N)N)C(=O)NCCCCCCCCCCCC.Cl [SZ211, (2S)—N-dodecyl-5-guanidino-2-(octadecylcarbamoylamino)pentanamide hydrochloride] | have an adjuvant activity | have an adjuvant activity | significant enhancement | significant enhancement |
| CCCCCCCCCCCCNC(=O)N[C@@H](CCCNC(=N)N)C(=O)NCCCCCCCCCCCC.Cl [SZ212, (2S)—N-dodecyl-2-(dodecylcarbamoylamino)-5-guanidino-pentanamide hydrochloride] | have an adjuvant activity | have an adjuvant activity | significant enhancement | significant enhancement |
| CCCCCCCCCCCCCCCCNC(=O)N[C@@H](CCCCN)C(=O)NCCCCCCCC.Cl [SZ213, (2S)-6-amino-2-(hexadecylcarbamoylamino)-N-octyl-hexanamide hydrochloride] | have an adjuvant activity | have an adjuvant activity | a tendency toward increase | significant enhancement |
| CCCCCCCCCCCCCCCCNC(=O)N[C@@H](CCCCN)C(=O)NCCCCCCCCCCCC.Cl [SZ214, (2S)-6-amino-N-dodecyl-2-(hexadecylcarbamoylamino)hexanamide hydrochloride] | have an adjuvant activity | have an adjuvant activity | significant enhancement | significant enhancement |
| CCCCCCCCCCCCCCCCOC(=O)N[C@@H](CCCNC(=N)N)C(=O)NCCCCCCCC.Cl [SZ215, hexadecyl N-[(1S)-4-guanidino-1-(octylcarbamoyl)butyl]carbamate hydrochloride] | have an adjuvant activity | have an adjuvant activity | a tendency toward increase | significant enhancement |
